Common to all, as to type: biochemical
One assay deals with T1, trypsin (Try) (Sus scrofa, UniProt P00761).
T1 construct: native, from porcine pancreas, lyophilized, 1300 BAEE U/mg (Sigma-Aldrich)
The assay is described as follows: BAEE hydrolysis, absorbance […] nm. The conditions noted are these: read-out: Potassium Sorbate / IC50 (converted).

Assay [1] addresses T2, alcohol dehydrogenase (ADH) (Saccharomyces cerevisiae, UniProt P00330).
T2 construct: gene ADH1
T2 sequence (P00330 2-348): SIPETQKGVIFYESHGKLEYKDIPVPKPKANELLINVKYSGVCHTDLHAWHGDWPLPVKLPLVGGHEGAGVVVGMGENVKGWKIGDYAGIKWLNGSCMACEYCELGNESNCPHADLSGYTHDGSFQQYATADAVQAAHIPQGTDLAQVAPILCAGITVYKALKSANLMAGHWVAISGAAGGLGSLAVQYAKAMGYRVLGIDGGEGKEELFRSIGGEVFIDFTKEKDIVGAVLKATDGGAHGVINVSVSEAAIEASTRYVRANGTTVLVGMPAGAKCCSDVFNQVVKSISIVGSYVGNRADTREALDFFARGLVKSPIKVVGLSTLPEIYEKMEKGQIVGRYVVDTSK
The assay is described as follows: spectrophotometric NAD+ reduction, […] nm. The settings on record: read-out: Potassium Sorbate / IC20.

Assay [2] concerns the target T3, lactate dehydrogenase (LDH) (Oryctolagus cuniculus, UniProt P13491).
T3 construct: gene LDHA
The assay is described as follows: spectrophotometric NAD+ reduction, […] nm. The conditions noted are these: read-out: Sodium Benzoate / IC20.

T1 sequence (P00761 9-231): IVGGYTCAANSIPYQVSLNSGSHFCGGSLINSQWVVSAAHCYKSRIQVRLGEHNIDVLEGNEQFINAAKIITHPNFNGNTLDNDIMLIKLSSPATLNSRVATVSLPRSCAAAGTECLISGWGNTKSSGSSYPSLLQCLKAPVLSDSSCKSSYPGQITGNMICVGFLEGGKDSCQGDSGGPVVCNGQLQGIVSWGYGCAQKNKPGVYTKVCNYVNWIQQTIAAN

For `C/C=C/C=C/C(=O)O` [potassium sorbate], the IC50 on trypsin (Try) is 134 µM. Further, the IC20 in assay [1] was over 5000 µg/mL.

Turning to `O=C(O)c1ccccc1` [sodium benzoate], the IC20 in assay [2] was 2200 ± 321 µg/mL.

For the origin of these results see publication PMC10300798, “Alternative Enzyme Inhibition Assay for Safety Evaluation of Food Preservatives” (Life, 2023).
